Read-outs that look alike come from different tables or passages of the source.
Tests used:
human recombinant HDAC1 = target: T1, human recombinant HDAC1 (Homo sapiens, UniProt Q13547); assay: HDAC1 enzyme activity inhibition (HDAC Fluorimetric Drug Discovery Kit); assay type: biochemical; details: read-out: HDAC1
T1 construct: purchased Enzo Life Science, Inc. BML-SE456
Outline: (§1)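 Five-fold compound dilutions incubated with […] recombinant enzyme and 10 μM fluorogenic Fluor de Lys substrate, 60 min at 30° C. Fluor de Lys Developer II then added for 30 min to generate the fluorescent read-out.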

human recombinant HDAC6 = target: T2, human recombinant HDAC6 (Homo sapiens, UniProt Q9UBN7); assay: HDAC6 enzyme activity inhibition (HDAC Fluorimetric Drug Discovery Kit); assay type: biochemical
T2 construct: purchased Calbiochem Inc. 382180
T2 sequence (Q9UBN7 1-1215): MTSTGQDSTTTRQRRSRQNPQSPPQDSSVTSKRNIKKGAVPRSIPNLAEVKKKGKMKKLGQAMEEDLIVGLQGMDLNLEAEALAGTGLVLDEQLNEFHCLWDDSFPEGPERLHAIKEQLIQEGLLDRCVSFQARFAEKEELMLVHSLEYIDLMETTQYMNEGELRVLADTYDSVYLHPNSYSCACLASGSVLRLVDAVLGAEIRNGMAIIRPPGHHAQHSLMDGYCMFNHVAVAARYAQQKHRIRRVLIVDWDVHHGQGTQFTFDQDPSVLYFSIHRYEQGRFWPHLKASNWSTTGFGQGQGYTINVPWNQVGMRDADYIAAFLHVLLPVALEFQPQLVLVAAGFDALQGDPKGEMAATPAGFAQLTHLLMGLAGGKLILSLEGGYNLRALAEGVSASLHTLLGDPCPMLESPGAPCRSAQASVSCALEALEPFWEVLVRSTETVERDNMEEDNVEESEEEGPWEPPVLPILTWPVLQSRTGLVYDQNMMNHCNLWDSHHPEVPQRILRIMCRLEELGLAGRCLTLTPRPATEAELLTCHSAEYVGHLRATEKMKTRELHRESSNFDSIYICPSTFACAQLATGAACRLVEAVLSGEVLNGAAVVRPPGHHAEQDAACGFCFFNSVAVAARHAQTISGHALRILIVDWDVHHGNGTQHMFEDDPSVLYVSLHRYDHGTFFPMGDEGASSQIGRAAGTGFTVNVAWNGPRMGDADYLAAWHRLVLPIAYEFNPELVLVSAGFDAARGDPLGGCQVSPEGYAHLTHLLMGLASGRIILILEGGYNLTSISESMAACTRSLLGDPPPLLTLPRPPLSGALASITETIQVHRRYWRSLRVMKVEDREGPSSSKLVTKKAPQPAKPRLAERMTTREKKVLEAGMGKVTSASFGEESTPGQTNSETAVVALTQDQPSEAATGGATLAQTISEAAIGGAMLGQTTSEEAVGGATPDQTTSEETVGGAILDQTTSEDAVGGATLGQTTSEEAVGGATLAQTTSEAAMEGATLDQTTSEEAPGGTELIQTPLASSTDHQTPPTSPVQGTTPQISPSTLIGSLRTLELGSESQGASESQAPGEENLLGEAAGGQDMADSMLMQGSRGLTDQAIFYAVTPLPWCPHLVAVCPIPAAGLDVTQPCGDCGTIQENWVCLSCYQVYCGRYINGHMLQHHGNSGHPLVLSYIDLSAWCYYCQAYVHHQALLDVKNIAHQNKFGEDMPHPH
Outline: as §1

[1] = human recombinant HDAC1, IC50 calculated with GraphPad Prism
[2] = human recombinant HDAC6, IC50 calculated with GraphPad Prism
[3] = human recombinant HDAC1, Fluor de Lys substrate, 30° C. 60 minutes
[4] = human recombinant HDAC6, same protocol as HDAC1

T1 sequence (Q13547 whole entry): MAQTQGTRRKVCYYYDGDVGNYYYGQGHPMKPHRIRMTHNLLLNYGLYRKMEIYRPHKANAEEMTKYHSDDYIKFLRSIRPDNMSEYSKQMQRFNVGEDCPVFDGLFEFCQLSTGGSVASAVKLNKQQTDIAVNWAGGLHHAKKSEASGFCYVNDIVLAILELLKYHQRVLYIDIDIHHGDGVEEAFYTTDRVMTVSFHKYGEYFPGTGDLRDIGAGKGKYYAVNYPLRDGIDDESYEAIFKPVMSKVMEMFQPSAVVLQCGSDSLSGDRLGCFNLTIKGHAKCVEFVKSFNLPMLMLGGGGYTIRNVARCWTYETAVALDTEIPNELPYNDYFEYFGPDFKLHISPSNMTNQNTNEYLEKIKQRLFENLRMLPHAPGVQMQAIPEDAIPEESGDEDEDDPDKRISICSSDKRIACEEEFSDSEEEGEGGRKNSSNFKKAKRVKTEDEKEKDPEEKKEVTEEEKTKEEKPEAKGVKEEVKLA

CC(C)(C)OC(=O)NC1(C(=O)Nc2cccc(-c3cn(Cc4ccc(-c5nnc(C(F)F)o5)cn4)nn3)c2)CCC1 [Compound 4496, tert-butyl (1-((3-(1-((5-(5-(difluoromethyl)-1,3,4-oxadiazol-2-yl)pyridin-2-yl)methyl)-1H-1,2,3-triazol-4-yl)phenyl)carbamoyl)cyclobutyl)carbamate]
IC50 (human recombinant HDAC1; [1]): > 50 µM | HDAC6 selectivity (fold) (human recombinant HDAC6; HDAC1 IC50 / HDAC6 IC50): 3355 fold | IC50 (human recombinant HDAC6; [2]): 14.9 nM

CC(C)(N)C(=O)Nc1cccc(-c2cn(Cc3ccc(-c4nnc(C(F)F)o4)cn3)nn2)c1 [Compound 4497, 2-amino-N-(3-(1-((5-(5-(difluoromethyl)-1,3,4-oxadiazol-2-yl)pyridin-2-yl)methyl)-1H-1,2,3-triazol-4-yl)phenyl)-2-methylpropanamide]
IC50 (human recombinant HDAC1; [1]): > 50 µM | HDAC6 selectivity (fold) (human recombinant HDAC6; HDAC1 IC50 / HDAC6 IC50): 3759 fold | IC50 (human recombinant HDAC6; [2]): 13.3 nM

NC1(C(=O)Nc2cccc(-c3cn(Cc4ccc(-c5nnc(C(F)F)o5)cn4)nn3)c2)CCC1 [Compound 4498, 1-amino-N-(3-(1-((5-(5-(difluoromethyl)-1,3,4-oxadiazol-2-yl)pyridin-2-yl)methyl)-1H-1,2,3-triazol-4-yl)phenyl)cyclobutan-1-carboxamide]
IC50 (human recombinant HDAC1; [3]): > 50 µM | HDAC6 selectivity (fold) (human recombinant HDAC6; HDAC6 over HDAC1): 1628 fold | IC50 (human recombinant HDAC6; [4]): 30.7 nM

Fc1cc(-c2nnc(C(F)F)o2)ccc1Cn1cc(-c2cc3c(s2)CNCC3)nn1 [Compound 4499, 2-(difluoromethyl)-5-(3-fluoro-4-((4-(4,5,6,7-tetrahydrothieno[2,3-c]pyridin-2-yl)-1H-1,2,3-triazol-1-yl)methyl)phenyl)-1,3,4-oxadiazole]
IC50 (human recombinant HDAC1; [3]): > 50 µM | HDAC6 selectivity (fold) (human recombinant HDAC6; HDAC6 over HDAC1): 922 fold | IC50 (human recombinant HDAC6; [4]): 54.2 nM

CN1CCc2cc(-c3cn(Cc4ccc(-c5nnc(C(F)F)o5)cc4F)nn3)sc2C1 [Compound 4500, 2-(difluoromethyl)-5-(3-fluoro-4-((4-(6-methyl-4,5,6,7-tetrahydrothieno[2,3-c]pyridin-2-yl)-1H-1,2,3-triazol-1-yl)methyl)phenyl)-1,3,4-oxadiazole]
IC50 (human recombinant HDAC1; [3]): > 50 µM | HDAC6 selectivity (fold) (human recombinant HDAC6; HDAC6 over HDAC1): 413 fold | IC50 (human recombinant HDAC6; [4]): 121 nM

CC(C)N1CCc2cc(-c3cn(Cc4ccc(-c5nnc(C(F)F)o5)cc4F)nn3)sc2C1 [Compound 4501]
IC50 (human recombinant HDAC1; [3]): > 50 µM | HDAC6 selectivity (fold) (human recombinant HDAC6; HDAC6 over HDAC1): 365 fold | IC50 (human recombinant HDAC6; [4]): 137 nM

CCN1CC(c2cccc(-c3cn(Cc4ccc(-c5nnc(C(F)F)o5)cn4)nn3)c2)C1 [Compound 4502, 2-(difluoromethyl)-5-(6-((4-(3-(1-ethylazetidin-3-yl)phenyl)-1H-1,2,3-triazol-1-yl)methyl)pyridin-3-yl)-1,3,4-oxadiazole]
IC50 (human recombinant HDAC1; [3]): > 50 µM | HDAC6 selectivity (fold) (human recombinant HDAC6; HDAC6 over HDAC1): 3571 fold | IC50 (human recombinant HDAC6; [4]): 14.2 nM

CC(C)N1CC(c2cccc(-c3cn(Cc4ccc(-c5nnc(C(F)F)o5)cn4)nn3)c2)C1 [Compound 4503, 2-(difluoromethyl)-5-(6-((4-(3-(1-isopropylazetidin-3-yl)phenyl)-1H-1,2,3-triazol-1-yl)methyl)pyridin-3-yl)-1,3,4-oxadiazole]
IC50 (human recombinant HDAC1; [3]): > 50 µM | HDAC6 selectivity (fold) (human recombinant HDAC6; HDAC6 over HDAC1): 4672 fold | IC50 (human recombinant HDAC6; [4]): 10.7 nM

FC(F)c1nnc(-c2ccc(Cn3cc(-c4cccc(C5CN(C6CCC6)C5)c4)nn3)nc2)o1 [Compound 4504, 2-(6-((4-(3-(1-cyclobutylazetidin-3-yl)phenyl)-1H-1,2,3-triazol-1-yl)methyl)pyridin-3-yl)-5-(difluoromethyl)-1,3,4-oxadiazole]
IC50 (human recombinant HDAC1; [3]): > 50 µM | HDAC6 selectivity (fold) (human recombinant HDAC6; HDAC6 over HDAC1): 3703 fold | IC50 (human recombinant HDAC6; [4]): 13.5 nM

FC(F)c1nnc(-c2ccc(Cn3cc(-c4cccc(C5CN(C6COC6)C5)c4)nn3)nc2)o1 [Compound 4505, 2-(difluoromethyl)-5-(6-((4-(3-(1-(oxetan-3-yl)azetidin-3-yl)phenyl)-1H-1,2,3-triazol-1-yl)methyl)pyridin-3-yl)-1,3,4-oxadiazole]
IC50 (human recombinant HDAC1; [3]): > 50 µM | HDAC6 selectivity (fold) (human recombinant HDAC6; HDAC6 over HDAC1): 2032 fold | IC50 (human recombinant HDAC6; [4]): 24.6 nM

CCN1CC(c2cccc(-c3cn(Cc4ccc(-c5nnc(C(F)F)o5)cc4F)nn3)c2)C1 [Compound 4506, 2-(difluoromethyl)-5-(4-((4-(3-(1-ethylazetidin-3-yl)phenyl)-1H-1,2,3-triazol-1-yl)methyl)-3-fluorophenyl)-1,3,4-oxadiazole]
IC50 (human recombinant HDAC1; [3]): > 50 µM | HDAC6 selectivity (fold) (human recombinant HDAC6; HDAC6 over HDAC1): 2262 fold | IC50 (human recombinant HDAC6; [4]): 22.1 nM

Fc1cc(-c2nnc(C(F)F)o2)ccc1Cn1cc(-c2cccc(C3CN(C4CCC4)C3)c2)nn1 [Compound 4507]
IC50 (human recombinant HDAC1; [3]): > 50 µM | HDAC6 selectivity (fold) (human recombinant HDAC6; HDAC6 over HDAC1): 1779 fold | IC50 (human recombinant HDAC6; [4]): 28.1 nM

CCN1CC(c2cccc(-c3cn(Cc4ccc(-c5nnc(C(F)F)o5)cc4)nn3)c2)C1 [Compound 4508, 2-(difluoromethyl)-5-(4-((4-(3-(1-ethylazetidin-3-yl)phenyl)-1H-1,2,3-triazol-1-yl)methyl)phenyl)-1,3,4-oxadiazole]
IC50 (human recombinant HDAC1; [3]): > 50 µM | HDAC6 selectivity (fold) (human recombinant HDAC6; HDAC6 over HDAC1): 1381 fold | IC50 (human recombinant HDAC6; [4]): 36.2 nM

CC(C)N1CC(c2cccc(-c3cn(Cc4ccc(-c5nnc(C(F)F)o5)cc4)nn3)c2)C1 [Compound 4509, 2-(difluoromethyl)-5-(4-((4-(3-(1-isopropylazetidin-3-yl)phenyl)-1H-1,2,3-triazol-1-yl)methyl)phenyl)-1,3,4-oxadiazole]
IC50 (human recombinant HDAC1; [3]): > 50 µM | HDAC6 selectivity (fold) (human recombinant HDAC6; HDAC6 over HDAC1): 2392 fold | IC50 (human recombinant HDAC6; [4]): 20.9 nM

FC(F)c1nnc(-c2ccc(Cn3cc(-c4cccc(C5CN(C6CCC6)C5)c4)nn3)cc2)o1 [Compound 4510, 2-(4-((4-(3-(1-cyclobutylazetidin-3-yl)phenyl)-1H-1,2,3-triazol-1-yl)methyl)phenyl)-5-(difluoromethyl)-1,3,4-oxadiazole]
IC50 (human recombinant HDAC1; [3]): > 50 µM | HDAC6 selectivity (fold) (human recombinant HDAC6; HDAC6 over HDAC1): 2173 fold | IC50 (human recombinant HDAC6; [4]): 23 nM

FC(F)c1nnc(-c2ccc(Cn3cc(-c4cccc(C5CN(C6COC6)C5)c4)nn3)cc2)o1 [Compound 4511, 2-(difluoromethyl)-5-(4-((4-(3-(1-(oxetan-3-yl)azetidin-3-yl)phenyl)-1H-1,2,3-triazol-1-yl)methyl)phenyl)-1,3,4-oxadiazole]
IC50 (human recombinant HDAC1; [3]): > 50 µM | HDAC6 selectivity (fold) (human recombinant HDAC6; HDAC6 over HDAC1): 325 fold | IC50 (human recombinant HDAC6; [4]): 64.2 nM

CN1Cc2ccc(-c3cn(Cc4ccc(-c5nnc(C(F)F)o5)cc4)nn3)cc2C1 [Compound 4513, 2-(difluoromethyl)-5-(4-((4-(2-methylisoindolin-5-yl)-1H-1,2,3-triazol-1-yl)methyl)phenyl)-1,3,4-oxadiazole]
IC50 (human recombinant HDAC1; [3]): > 50 µM | HDAC6 selectivity (fold) (human recombinant HDAC6; HDAC6 over HDAC1): 495 fold | IC50 (human recombinant HDAC6; [4]): 101 nM

CN1Cc2ccc(-c3cn(Cc4ccc(-c5nnc(C(F)F)o5)cc4F)nn3)cc2C1 [Compound 4515, 2-(difluoromethyl)-5-(3-fluoro-4-((4-(2-methylisoindolin-5-yl)-1H-1,2,3-triazol-1-yl)methyl)phenyl)-1,3,4-oxadiazole]
IC50 (human recombinant HDAC1; [3]): > 50 µM | HDAC6 selectivity (fold) (human recombinant HDAC6; HDAC6 over HDAC1): 900 fold | IC50 (human recombinant HDAC6; [4]): 55.5 nM

CCN1Cc2ccc(-c3cn(Cc4ccc(-c5nnc(C(F)F)o5)cc4F)nn3)cc2C1 [Compound 4516, 2-(difluoromethyl)-5-(4-((4-(2-ethylisoindolin-5-yl)-1H-1,2,3-triazol-1-yl)methyl)-3-fluorophenyl)-1,3,4-oxadiazole]
IC50 (human recombinant HDAC1; [3]): > 50 µM | HDAC6 selectivity (fold) (human recombinant HDAC6; HDAC6 over HDAC1): 680 fold | IC50 (human recombinant HDAC6; [4]): 73.5 nM
